Source: patent publication US20240122212A1 (SUNTORY HOLDINGS LIMITED, priority 2020, published 2024)
Read-outs that look alike come from different tables or passages of the source.

Columns and labels:
[1] = sucrose per unit concentration Brix 1 = 1, cited from earlier work
[2] = Basic taste quality sensory evaluation by trained panelists, spitting test, against 6% sucrose control (Example 1); type: in vivo, human; conditions: scale −3 to 3, 0 = no difference from 6% sucrose control; D-allulose 8.57 w/v %, D-arabinose 10 w/v % in pure water; 4 panelists
Method: In each evaluation item, the rating on a scale of −3 point to 3 point was performed, with the case where there is no difference from the control solution being 0. Quicker in sweetness onset, higher sweetness intensity, shorter lingering sweet aftertaste, lower bitterness intensity, and shorter lingering bitter aftertaste compared to the control were rated near 3 points. Slower in sweetness onset, lower sweetness intensity, longer lingering sweet aftertaste, higher bitterness intensity, and longer lingering bitter aftertaste compared to the control were rated near −3 points. That is, the closer to 0 point, the closer to the control. The evaluation was carried out by those (4 persons) who received sensory trainings as panelists by spitting test. The amount of a sweet substance contained in each sample solution was adjusted to be equal to the control solution on the calculation. […] The energy (kcal/100 ml) was calculated from the amount of the sweetener added.

[3] = Degree of sweetness relative to sucrose; conditions: for sweetness intensity, times as much as that of sucrose: value used to design the sample solutions of Example 5
Source text: The “sweetness intensity” means an intensity of sweetness of a substance. […] A numerical value obtained by multiplying the degree of sweetness by a concentration Brix value of glucose is the sweetness intensity of glucose in terms of sucrose. Thus, when a concentration of glucose in terms of sucrose is Brix 1.5, the sweetness intensity of glucose is 0.65×1.5=0.975. The sweetness intensity of a sweetener in terms of sucrose can be calculated from a degree of sweetness shown in the following table or a value of a known degree of sweetness.
For example, when the sweetness intensity of sucrose per unit concentration Brix 1 is defined as a degree of sweetness of 1, a degree of sweetness of rebaudioside D is about 200 to 250 (median value 225), a degree of sweetness of rebaudioside M is about 200 to 260 (median value 230), a degree of sweetness of rebaudioside B is about 325, a degree of sweetness of rebaudioside A is about 200 to 300 (median value 250), a degree of sweetness of rebaudioside N is about 200 to 250 (median value 225), a degree of sweetness of rebaudioside O is about 200 to 250 (median value 225), a degree of sweetness of rebaudioside E is about 70 to 80 (median value 75), a degree of sweetness of a Luo han guo extract (containing 40% of Mog V) is about 110 to 150 (median value 130), a degree of sweetness of mogroside V is about 240 to 300 (median value 270), and a degree of sweetness of thaumatin is about 2,000, and a degree of sweetness of brazzein is about 500 to 2,000 (median value 1,250). The numerical value obtained by multiplying these degrees of sweetness by a concentration (w/v % (considered to be the same as w/w % in the case of a beverage)) of the high-intensity sweetener in a fruit juice beverage is a sweetness intensity of the high-intensity sweetener. The relative ratio in degrees of sweetness of various sweeteners to the degree of sweetness of 1 of sucrose can be determined from a known sugar sweetness conversion table, and the like. In the present description, when a degree of sweetness is shown in a numerical value range, the median value may be used. However, a sweetener having different values in a degree of sweetness by literatures, a relative ratio in a degree of sweetness to the degree of sweetness of 1 of sucrose can be defined by a sensory test. Examples of such a sensory test include a method in which samples were prepared by adding sucrose having a sweetness intensity of Brix 3.0 to 5.0 in 0.5 increments to pure water, and of which a sucrose-added sample having a sweetness intensity equal to an aqueous solution of a sweetener in a predetermined concentration is selected.
Additionally, for a sweetener with a variable degree of sweetness as a sweetness intensity increases, degrees of sweetness in different concentrations are actually measured and plotted whereby a degree of sweetness in a predetermined concentration may be calculated from the obtained approximate curve.

[4] = target: T1, sweet taste receptor (T1R2/T1R3) (Homo sapiens, UniProt Q7RTX0+Q8TE23); assay: Sensory evaluation of sweetness intensity (VAS) in the co-presence of sweet taste receptor inhibitor lactisole (Example 5); type: in vivo; conditions: for Sweetness intensity residual ratio (%) with addition of 100 ppm lactisole: lactisole-free solution = 100%, sucrose 8 w/v %, sucralose 149 ppm, D- or L-arabinose 13.3 w/v %, VAS, average of n=3
T1 construct: endogenous in cells; host or cells: taste cells in the mouths of 3 trained human panelists (in vivo spitting test)
T1 sequence (Q8TE23 20-839): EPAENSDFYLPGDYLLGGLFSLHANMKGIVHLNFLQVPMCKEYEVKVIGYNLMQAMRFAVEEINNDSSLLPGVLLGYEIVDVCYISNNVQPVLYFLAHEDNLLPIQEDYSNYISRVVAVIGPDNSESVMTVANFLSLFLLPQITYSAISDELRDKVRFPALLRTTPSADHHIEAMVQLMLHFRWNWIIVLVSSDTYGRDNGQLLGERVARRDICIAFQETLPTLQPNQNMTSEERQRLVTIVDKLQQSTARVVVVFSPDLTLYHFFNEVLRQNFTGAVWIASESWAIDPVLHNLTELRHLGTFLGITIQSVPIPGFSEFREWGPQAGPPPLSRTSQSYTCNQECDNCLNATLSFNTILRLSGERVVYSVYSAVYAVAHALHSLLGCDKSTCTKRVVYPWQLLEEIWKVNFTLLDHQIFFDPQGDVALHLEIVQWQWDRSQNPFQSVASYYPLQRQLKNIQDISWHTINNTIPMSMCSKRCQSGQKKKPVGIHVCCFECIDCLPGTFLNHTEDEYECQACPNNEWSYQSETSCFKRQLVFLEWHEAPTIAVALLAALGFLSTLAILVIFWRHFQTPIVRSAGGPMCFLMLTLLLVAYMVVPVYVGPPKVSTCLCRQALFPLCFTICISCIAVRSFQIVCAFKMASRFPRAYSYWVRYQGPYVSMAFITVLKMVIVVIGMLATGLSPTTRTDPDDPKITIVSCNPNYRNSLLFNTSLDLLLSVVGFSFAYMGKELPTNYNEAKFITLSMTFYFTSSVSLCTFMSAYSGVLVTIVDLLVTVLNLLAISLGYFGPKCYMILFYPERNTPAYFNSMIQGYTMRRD
T1 sequence (Q7RTX0 21-852): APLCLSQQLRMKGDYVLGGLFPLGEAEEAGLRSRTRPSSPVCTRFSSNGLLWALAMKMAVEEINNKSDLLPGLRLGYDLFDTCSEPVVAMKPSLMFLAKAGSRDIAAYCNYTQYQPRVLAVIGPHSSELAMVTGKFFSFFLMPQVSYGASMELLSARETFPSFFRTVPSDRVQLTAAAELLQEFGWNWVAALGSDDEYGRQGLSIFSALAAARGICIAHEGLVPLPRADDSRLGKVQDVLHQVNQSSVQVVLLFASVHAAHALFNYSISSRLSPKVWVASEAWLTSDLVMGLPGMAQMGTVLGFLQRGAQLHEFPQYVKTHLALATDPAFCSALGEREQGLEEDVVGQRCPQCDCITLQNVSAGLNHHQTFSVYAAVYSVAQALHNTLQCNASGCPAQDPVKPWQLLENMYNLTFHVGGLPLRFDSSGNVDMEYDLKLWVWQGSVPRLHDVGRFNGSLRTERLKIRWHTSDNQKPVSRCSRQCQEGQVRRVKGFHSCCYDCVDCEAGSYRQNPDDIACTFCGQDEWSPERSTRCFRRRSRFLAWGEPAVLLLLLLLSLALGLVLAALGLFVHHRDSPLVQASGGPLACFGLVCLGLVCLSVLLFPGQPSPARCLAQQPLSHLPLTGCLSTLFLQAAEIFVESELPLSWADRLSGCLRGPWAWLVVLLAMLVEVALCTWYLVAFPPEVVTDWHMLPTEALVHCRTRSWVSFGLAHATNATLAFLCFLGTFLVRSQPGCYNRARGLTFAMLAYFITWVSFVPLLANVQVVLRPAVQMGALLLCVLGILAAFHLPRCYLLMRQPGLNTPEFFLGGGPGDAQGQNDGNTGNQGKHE
Source text: Whether or not a certain sweet substance can trigger a sweetness response even if a sweetness response through the sweet taste receptor T1R2/T1R3 is inhibited may be determined by, for instance, measuring, by sensory evaluation or cell assay, the sweetness intensity of a solution (control solution), in which only the above sweet substance has been dissolved, and the sweetness intensity (remaining sweetness intensity) of a solution (test solution), in which a sweet taste receptor T1R2/T1R3 inhibitor (e.g., lactisole, gymnemic acid) is added for inhibiting a sweetness response through the sweet taste receptor T1R2/T1R3 to the control solution; and by comparing the sweetness intensity of the control solution and the sweetness intensity of the test solution.
The evaluation was carried out by those (3 persons) who received sensory trainings as panelists. […] Additionally, solutions having the same composition as sample solutions 1, 2, 3, and 4 except that lactisole was not added were used as control solutions 1, 2, 3, and 4. The sensory evaluation was carried out by spitting test. The sweetness intensity was rated by the VAS scale and calculated with the intensity of a solution to which lactisole was not added being 100% and the sweetness intensity of a solution to which lactisole was added as a relative value (%). The sweetness inhibitory effect by lactisole was verified by this.

For O=C[C@H](O)[C@H](O)[C@H](O)[C@H](O)CO [Allose], the Degree of sweetness ([1]; Table 1) is listed as 0.8.

With O=C(CO)[C@H](O)[C@H](O)[C@H](O)CO [D-Allulose] the Bitterness intensity [2] was −1 point, the Lingering bitter aftertaste [2] was −0.625 point and the Lingering sweet aftertaste [2] was 0.125 point. The “Quickness in sweetness onset” value [2] was 0.125 point, the Sweetness intensity [2] was −0.125 point and the “degree of sweetness, times as much as that of sucrose” value ([3]; value used to design the sample solutions) was 0.7 times.

For O=C[C@H](O)[C@@H](O)[C@@H](O)CO [L-Arabinose], the “remaining sweetness intensity when 100 ppm of lactisole was added, compared with sucrose” value ([4]; 100 ppm lactisole) was “equal to or more than that of sucrose”, the “Sweetness intensity residual ratio (%) with addition of 100 ppm lactisole” value (“Sweetness intensity residual ratio (%)” below) [4] was 34.43% and the “sweetness intensity, times as much as that of sucrose” value [3] was 0.6 times.

For OC[C@H]1O[C@H](O[C@H]2[C@H](O)[C@@H](O)[C@H](O)O[C@@H]2CO)[C@H](O)[C@@H](O)[C@@H]1O [Maltose], the Degree of sweetness ([1]; Table 1) is given as 0.4.

For OC[C@H]1O[C@H](O[C@]2(CCl)O[C@H](CCl)[C@@H](O)[C@@H]2O)[C@H](O)[C@@H](O)[C@H]1Cl [Sucralose], the “Sweetness intensity residual ratio (%)” value [4] was 8.99% and the “sweetness intensity, times as much as that of sucrose” value [3] was 538.54 times.

In the case of OC[C@H]1O[C@@](CO)(O[C@H]2O[C@H](CO)[C@@H](O)[C@H](O)[C@H]2O)[C@@H](O)[C@@H]1O [Sucrose], the Bitterness intensity [2] was 0 point, the Lingering bitter aftertaste [2] was 0 point and the Lingering sweet aftertaste [2] was 0 point. The “Quickness in sweetness onset” value [2] was 0 point, the Sweetness intensity [2] was 0 point and the “Sweetness intensity residual ratio (%)” value [4] was 29.05%. For the same compound, the Degree of sweetness ([1]; Table 1) was 1.

For O=C(CO)[C@@H](O)[C@@H](O)[C@H](O)CO [Tagatose], the Degree of sweetness ([1]; Table 1) is given as 0.9.

With “brazzein: sweet protein of Pentadiplandra brazzeana (QDKCKKVYENYPVSKCQLANQCNYDCKLDKHARSGECFYDEKRNLQCICDYCEY; UniProt P56552 1-54, looked up)” the “degree of sweetness, median value” ([3]; median of the range, sucrose = 1) was 1,250.

For rebaudioside B, the Degree of sweetness ([1]; high-intensity sweeteners) is given as “about 325”.

In the case of thaumatin, the Degree of sweetness ([1]; high-intensity sweeteners) is given as “about 2,000”.
